The series is described as follows: Solubility of active constituents in dendrimer solutions by HPLC (Example 26). Format: physicochemical. As for the experimental part:
Four PEHAM dendrimers, each at 10 g/L and 100 g/L in water, were used for evaluation. A 15 g of each dendrimer was dissolved in distilled water and made accurately to 150 mL volume. Determination of pH was then made using a calibrated pH meter and electrode.
To prepare saturated solutions of active constituent in 100 g/L dendrimer solutions, 10 mL of each 100 g/L dendrimer solution was placed into a 50 mL test tube and 0.2 g of active constituent was then also added. The test tube was then briefly shaken to disperse the contents, before being placed in an ultrasonic water bath, and subjected to sonication for 30 mins at […] The test tube and contents were then cooled to […] and then a 2.0 mL aliquot was taken and filtered through a 0.45 μm PTFE membrane filter.
To prepare saturated solutions of active constituent in 10 g/L dendrimer solutions, 1.0 mL of each 100 g/L dendrimer solution was placed into a 50 mL test tube and a 9.0 mL aliquot of distilled water added and 0.2 g of active constituent was then also added. The test tube was then briefly shaken to disperse the contents, before being placed in an ultrasonic water bath, and subjected to sonication for 30 mins at […] The test tube and contents were then cooled to […] and then a 2.0 mL aliquot was taken and filtered through a 0.45 μm PTFE membrane filter
Each prepared and filtered solution was examined in a light box for Tyndall Scattering (light scattering by particles in a colloid or particles in a fine suspension). A visual observation was made and recorded for each solution. Ten active constituents that were selected to cover a range of water solubility were treated according to the method described here. A total of 200 filtered solutions were prepared.
High Performance Liquid Chromatography was used to analyse each active constituent in each dendrimer solution. Each saturated active constituent solution was freshly prepared for immediate analysis or frozen at <−15° C. where analysis could not take place within 2 hours of preparation. The following are details of the HPLC equipment used. For each active constituent a set of 4 calibration solutions was prepared 0 to 25 ppm. A sequence of injections comparing the peak area of the calibration solutions and the dendrimer solutions was then undertaken. The dendrimer solutions were diluted as required to maintain their respective peak area response within the calibration range. The active constituent concentration (ppm) in the dendrimer solution was determined by calculation: RF×SA×DF, where RF=Response Factor (concentration of calibration solution per unit of peak area, SA=Sample Peak Area (peak area of the sample solution), and DF=Dilution Factor (dilution of the sample solution). HPLC conditions were varied to ensure the optimum detection and separation of each active constituent from excipients.

These results are taken from patent US9585387B1, “PEHAM dendrimers for use in agriculture” (Starpharma Pty Ltd, priority 2009, dated 2017).

For the compound `CCC(COCC(O)CN(CC(=O)[O-])CC(=O)[O-])(COCC(O)CN(CC(=O)[O-])CC(=O)[O-])COCC(O)CN(CC(=O)[O-])CC(=O)[O-].[Na+].[Na+].[Na+].[Na+].[Na+].[Na+]` (stereo not drawn) [Example 10, [(C)=TMPTGE; (FF)=Et; (IF1)=OH; (BR1)=IDA; (TF)=CO2Na; G=1]], the “Ratio of Active Ingredient in Dendrimer Solution (ppm) to Active Ingredient in Water (ppm)” value (“Ratio of Active Ingredient” below) by setting is: (6-BAP, 10 g/L loading) 7; (6-BAP, 100 g/L loading) 448; (Bifenthrin, 10 g/L loading) 1; (Bifenthrin, 100 g/L loading) 1; (Clomazone, 10 g/L loading) 1; (Clomazone, 100 g/L loading) 1. Besides, the “Ratio of Active Ingredient” value by setting is: (Flumetsulam, 10 g/L loading) 2; (Flumetsulam, 100 g/L loading) 2; (Mcylobutanil, 10 g/L loading) 2; (Mcylobutanil, 100 g/L loading) 2; (Penconazole, 10 g/L loading) 2; (Penconazole, 100 g/L loading) 3. For the same compound, the “Ratio of Active Ingredient” value (Pendimethalin, 10 g/L loading) is on record as 11; the “Ratio of Active Ingredient” value (Pendimethalin, 100 g/L loading) is 2; the “Ratio of Active Ingredient” value (Propaquizafop, 10 g/L loading) was found to be 1; the “Ratio of Active Ingredient” value (Propaquizafop, 100 g/L loading) turned out to be 1; the “Ratio of Active Ingredient” value (Thiamethoxam, 10 g/L loading) stood at 2; the “Ratio of Active Ingredient” value (Thiamethoxam, 100 g/L loading) worked out at 1. In addition, the “Ratio of Active Ingredient” value runs as follows: (Thidiazuron, 10 g/L loading) 19; (Thidiazuron, 100 g/L loading) 40.

For the compound `CCC(COCC(O)CN(CCN)CCN)(COCC(O)CN(CCN)CCN)COCC(O)CN(CCN)CCN` (stereo not drawn) [Example 14, [(C)=TMPTGE; (IF1)=OH; (BR1)=DETA; (TF)=Primary NH2; G=1]], the “Ratio of Active Ingredient” value (6-BAP, 10 g/L loading) is 10; the “Ratio of Active Ingredient” value (6-BAP, 100 g/L loading) is given as 2740; the “Ratio of Active Ingredient” value (Bifenthrin, 10 g/L loading) was 1; the “Ratio of Active Ingredient” value (Bifenthrin, 100 g/L loading) stood at 4; the “Ratio of Active Ingredient” value (Clomazone, 10 g/L loading) is given as 1; the “Ratio of Active Ingredient” value (Clomazone, 100 g/L loading) worked out at 1. Further, the “Ratio of Active Ingredient” value is 2 (Flumetsulam, 10 g/L loading); 2 (Flumetsulam, 100 g/L loading); 3 (Mcylobutanil, 10 g/L loading); 4 (Mcylobutanil, 100 g/L loading); 2 (Penconazole, 10 g/L loading); 6 (Penconazole, 100 g/L loading). Further, the “Ratio of Active Ingredient” value runs as follows: (Pendimethalin, 10 g/L loading) 172; (Pendimethalin, 100 g/L loading) 15; (Propaquizafop, 10 g/L loading) 1; (Propaquizafop, 100 g/L loading) 1; (Thiamethoxam, 10 g/L loading) 2; (Thiamethoxam, 100 g/L loading) 1. Besides, the “Ratio of Active Ingredient” value (Thidiazuron, 10 g/L loading) was found to be 46 and the “Ratio of Active Ingredient” value (Thidiazuron, 100 g/L loading) came out at 329.

With `CCC(COCC(O)CN(CCOC)CCOC)(COCC(O)CN(CCOC)CCOC)COCC(O)CN(CCOC)CCOC` (stereo not drawn) [Example 15, [(C)=TMPTGE; (FF)=Et; (IF1)=OH; (BR1)=DEA; (TF)=OMe; G=1]], the “Ratio of Active Ingredient” value is, setting by setting: (6-BAP, 10 g/L loading) 3; (6-BAP, 100 g/L loading) 475; (Bifenthrin, 10 g/L loading) 9; (Bifenthrin, 100 g/L loading) 1; (Clomazone, 10 g/L loading) 1; (Clomazone, 100 g/L loading) 1. Also, the “Ratio of Active Ingredient” value by setting is: (Flumetsulam, 10 g/L loading) 1; (Flumetsulam, 100 g/L loading) 2; (Mcylobutanil, 10 g/L loading) 2; (Mcylobutanil, 100 g/L loading) 3; (Penconazole, 10 g/L loading) 2; (Penconazole, 100 g/L loading) 12. Further, the “Ratio of Active Ingredient” value runs as follows: (Pendimethalin, 10 g/L loading) 44; (Pendimethalin, 100 g/L loading) 41; (Propaquizafop, 10 g/L loading) 1; (Propaquizafop, 100 g/L loading) 1; (Thiamethoxam, 10 g/L loading) 2; (Thiamethoxam, 100 g/L loading) 2. The “Ratio of Active Ingredient” value reads like this: (Thidiazuron, 10 g/L loading) 5; (Thidiazuron, 100 g/L loading) 17.
